This is an account of results in patent publication US9051335B2, “Antipruritic agent for pruritus caused by multiple sclerosis” (TORAY INDUSTRIES, INC., priority 2005, dated 2015).

This assay has as its system MRL/lpr mice. Nature of the assay: Spontaneous scratching behavior in MRL/lpr mice (antipruritic effect). The format is in vivo. The note with it: 20 weeks old female MRL/lpr mice, n=8. As for the experimental part: [drawing 8] which is an κ opioid receptor agonist compound against pruritus was evaluated. The evaluation was carried out over 5 days dividedly. On Day 1, sterilized distilled water was orally administered 30 minutes before the beginning of the recording of the scratching behavior, and the number of scratching behavior when the mouse received a solvent was counted for 60 minutes. On Day 2, Compound 1 was orally administered to the same mouse 30 minutes before the beginning of the recording of the scratching behavior at a dose of 3 μg/kg, and the number of scratching behavior was counted for 60 minutes. On Days 3 to 5, the experiments were carried out in the same schedule as in Day 2 increasing the dose of Compound 1 such that the doses of Compound 1 on Day 3, Day 4 and Day 5 were 10 μg/kg, 30 μg/kg and 100 μg/kg, respectively (n=8). […] The number of scratching behavior was counted visually by replaying the video tape. The number of scratching behavior was counted such that the series of behavior from raising the hind leg for starting the scratching to putting down the hind leg were counted as one scratching behavior. […]

Take `CN(C(=O)/C=C/c1ccoc1)[C@@H]1CC[C@@]2(O)[C@H]3Cc4ccc(O)c5c4[C@@]2(CCN3CC2CC2)[C@H]1O5.Cl` [Compound 1, (−)-17-cyclopropylmethyl-4,5α-epoxy-3,14β-dihydroxy-6β-(N-methyl-trans-3-(3-furyl)acrylamido)morphinan hydrochloric acid salt]: the “number of scratching behavior (60 minutes) versus control group at the time of administration of the solvent” value runs as follows: (30 μg/kg orally 30 minutes before recording, significant at statistical level of 5%) “decreased”; (100 μg/kg orally 30 minutes before recording, significant at statistical level of 1%) “decreased”.
